ChEMBL document CHEMBL1128496, “Anti-AIDS (acquired immune deficiency syndrome) agents. 17. New brominated hexahydroxybiphenyl derivatives as potent anti-HIV agents” (J Med Chem, 1995)
In brackets after ≈: the same amount, converted by molar mass. Several values for one entry are separate records, joined by “and”; a condition that tells them apart may be missing. Identical values can stand only once.

Experiments:
[1] = Anti-HIV activity was evaluated by measuring the growth inhibition of acutely infected H9 lymphocytes as IC50.; type: functional; conditions: Human immunodeficiency virus 1
[2] = Anti-HIV activity evaluated by measuring the growth inhibition of acutely infected H9 lymphocytes as therapeutic index.; set-up: species or system Human immunodeficiency virus 1; conditions: for selectivity ratio: human immunodeficiency virus 1, H9 lymphocytes acutely infected with HIV-1, read-out: TI; for TI: Human immunodeficiency virus 1
[3] = Anti-HIV activity was evaluated by measuring the growth inhibition of acutely infected H9 lymphocytes as EC50.; type: functional; conditions: Human immunodeficiency virus 1
H9 [4] = assay: Anti-HIV activity of compound was evaluated by measuring the growth inhibition of acutely infected H9 lymphocytes as IC50.; type: functional, Homo sapiens
[5] = Effect against HIV-1 chronically infected promonocytic cell line U1; type: functional, Human immunodeficiency virus 1
[6] = Effect against HIV-1 expression in a chronically infected human T cell line ACH-2; type: functional, Human immunodeficiency virus 1
[7] = Effect against HIV-1 expression in a chronically infected human T cell line ACH-2i n the presence of PMA(phorbol 12-myristate 13-acetate); type: functional, Human immunodeficiency virus 1
[8] = Effect against HIV-1 chronically infected promonocytic cell line U1 in the presence of PMA(phorbol 12-myristate 13-acetate); type: functional, Human immunodeficiency virus 1
H9 [9] = assay: Anti-HIV activity of compound was evaluated by measuring the growth inhibition of acutely infected H9 lymphocytes.; type: functional, cell-based; conditions: Homo sapiens
[10] = Effect against HIV-1 expression in a chronically infected human T cell line ACH-2 in the presence of PMA(phorbol 12-myristate 13-acetate); type: functional, Human immunodeficiency virus 1
ACH-2 cell line [11] = assay: Effect against HIV-1 chronically infected […] cell line ACH-2 cells in the presence of PMA(phorbol 12-myristate 13-acetate); type: functional, Homo sapiens
ACH-2 cell line [12] = assay: Effect against HIV-1 chronically infected […] cell line ACH-2 cells; type: functional, Homo sapiens

| SMILES | IC50 [1] [µg/mL] | selectivity ratio [2] | EC50 [3] [µg/mL] | further results |
| --- | --- | --- | --- | --- |
| COc1c(Br)c(C(=O)O)c(-c2c3c(c(OC)c(Br)c2C(=O)NCCN2CCNCC2)OCO3)c2c1OCO2 | > 100 | > 3.3 | 30 (≈ 45.5 µM) |  |
| COc1c(Br)c(C(=O)[O-])c(-c2c3c(c(OC)c(Br)c2C(=O)[O-])OCO3)c2c1OCO2.[Na+].[Na+] | > 100 | 1 | > 100 |  |
| COc1c(Br)c(C(=O)O)c(-c2c3c(c(OC)c(Br)c2C(=O)O)OCO3)c2c1OCO2 | > 100 |  | > 100 | TI [2]: 1 |
| COc1c2c(c3c(c1Br)c(=O)oc(=O)c1c(Br)c(OC)c4c(c13)OCO4)OCO2 |  |  |  | C50 (H9 [4]): >100 µg/mL |
| COc1c(Br)c(C(=O)O)c(-c2c3c(c(OC)c(Br)c2C(=O)OCC[N+](C)(C)C)OCO3)c2c1OCO2.[Cl-] | > 100 | 1 | > 100 |  |
| CCOC(=O)c1c(Br)c(OC)c2c(c1-c1c3c(c(OC)c(Br)c1C(=O)[O-])OCO3)OCO2.[Na+] | > 100 |  |  |  |
| COC(=O)c1c(Br)c(OC)c2c(c1-c1c3c(c(OC)c(Br)c1C(=O)OC)OCO3)OCO2 |  | > 480 |  | p24 [5]: 15 pg/mL and 16 pg/mL and 14 pg/mL and 13 pg/mL and 17 pg/mL; p24 [6]: 169 pg/mL and 141 pg/mL and 135 pg/mL and 142 pg/mL and 122 pg/mL and 123 pg/mL; p24 [7]: 31590 pg/mL and 35635 pg/mL and 30426 pg/mL and 32768 pg/mL and 29173 pg/mL and 27699 pg/mL; p24 [8]: 10131 pg/mL and 10598 pg/mL and 11482 pg/mL and 9850 pg/mL and 8320 pg/mL and 7590 pg/mL; EC50 (H9 [9]): 0.23 µg/mL (≈ 0.399 µM) |
| COc1c(OC(=O)c2ccccc2)c(OC(=O)c2ccccc2)c(Br)c(CO)c1-c1c(CO)c(Br)c(OC(=O)c2ccccc2)c(OC(=O)c2ccccc2)c1OC | > 100 | 1 | > 100 |  |
| COC(=O)c1cc(OC(=O)c2ccccc2)c(OC(=O)c2ccccc2)c(OC)c1-c1c(OC)c(OC(=O)c2ccccc2)c(OC(=O)c2ccccc2)c(Br)c1C(=O)OC | > 100 | 1 | > 100 |  |
| CCCCCCOC(=O)c1c(Br)c(OC)c2c(c1-c1c3c(c(OC)c(Br)c1C(=O)OCCCCCC)OCO3)OCO2 | > 100 | > 50 | 2 (≈ 2.79 µM) |  |
| COC(=O)c1cc(OC)c2c(c1-c1c3c(c(OC)c(Br)c1C(=O)OC)OCO3)OCO2 |  |  |  | p24 [6]: 148 pg ml-1 [middle of 6 runs]; p24 [7]: 46208 pg/mL and 28634 pg/mL and 24832 pg/mL and 26957 pg/mL and 27699 pg/mL; p24 [8]: 10746 pg/mL and 13376 pg/mL and 8774 pg/mL and 7616 pg/mL and 7200 pg/mL and 8314 pg/mL; p24 [10]: 23373 pg/mL |
| COC(=O)c1c(Br)c(OC(=O)c2ccccc2)c(OC(=O)c2ccccc2)c(OC)c1-c1c(OC)c(OC(=O)c2ccccc2)c(OC(=O)c2ccccc2)c(Br)c1C(=O)OC | > 100 | 1 | > 100 |  |
| COc1c(Br)c(C(=O)O)c(-c2c3c(c(OC)c(Br)c2C(=O)O)OCO3)c2c1OCO2.OCCN1CCCC1.OCCN1CCCC1 | > 20 |  | 17 | TI [2]: < 1.2 |
| CCOC(=O)c1c(Br)c(OC)c2c(c1-c1c3c(c(OC)c(Br)c1C(=O)O)OCO3)OCO2 | > 100 | > 1.7 | 60 (≈ 104 µM) |  |
| COc1c(OC(=O)c2ccccc2)c(OC(=O)c2ccccc2)cc(CO)c1-c1c(CO)c(Br)c(OC(=O)c2ccccc2)c(OC(=O)c2ccccc2)c1OC | > 100 | > 1 | 100 (≈ 120 µM) |  |
| Br.COc1c(Br)c(C(=O)O)c(-c2c3c(c(OC)c(Br)c2C(=O)NCCN2CCCC2)OCO3)c2c1OCO2 | > 100 | 1 | > 100 |  |
| COC(=O)c1cc(OC)c2c(c1-c1c(C(=O)OC)cc(OC)c3c1OCO3)OCO2 [BIFENDATE] | > 100 | > 20 | 5 (≈ 12 µM) |  |
| Cc1cn([C@H]2C[C@H](N=[N+]=[N-])[C@@H](CO)O2)c(=O)[nH]c1=O [ZIDOVUDINE] |  |  |  | p24 [5]: 22 pg/mL and 13 pg/mL and 12 pg/mL and 18 pg/mL; p24 (ACH-2 cell line [11]): 19814 pg/mL and 30758 pg/mL and 31808 pg/mL and 31360 pg/mL; p24 [8]: 9338 pg/mL and 9299 pg/mL and 8218 pg/mL and 8070 pg/mL; p24 (ACH-2 cell line [12]): 167 pg ml-1 [middle of 4 runs] |
